Source: patent US20050032873A1, “3-Amino chroman and 2-amino tetralin derivatives” (Wyeth, priority 2003, published 2005)
Where a name gives a salt, the structure may show the parent alone.

| melting point | SMILES |
| --- | --- |
| 130 °C (dec.) | CNC(=O)c1ccc(F)c2c1CC(NCCCCc1c[nH]c3ccc(F)cc13)CO2 (centres unmarked) (as salt: hydrochloride) [Compound 92, 8-fluoro-3-{[4-(5-fluoro-1H-indol-3-yl)butyl]amino}-N-methylchromane-5-carboxamide] |
| 110 °C (dec.) | CCCN(CCCCc1c[nH]c2ccc(F)cc12)C1COc2c(F)ccc(C(=O)NC)c2C1 (centres unmarked) (as salt: hydrochloride) [Compound 93, 8-fluoro-3-[[4-(5-fluoro-1H-indol-3-yl)butyl](propyl)amino]-N-methylchromane-5-carboxamide] |
| 112 °C (dec.) | CNC(=O)c1ccc(F)c2c1CC(N(CCCCc1c[nH]c3ccc(F)cc13)CC1CC1)CO2 (centres unmarked) (as salt: hydrochloride) [Compound 94, 3-{(cyclopropylmethyl)[4-(5-fluoro-1H-indol-3-yl)butyl]amino}-8-fluoro-N-methylchromane-5-carboxamide] |
| 123 °C (dec.) | CNC(=O)c1ccc(F)c2c1CC(N(CCCCc1c[nH]c3ccc(F)cc13)C1CCC1)CO2 (centres unmarked) (as salt: hydrochloride) [Compound 95, 3-{cyclobutyl[4-(5-fluoro-1H-indol-3-yl)butyl]amino}-8-fluoro-N-methylchromane-5-carboxamide] |
| 160 to 167 °C (dec.) | N#Cc1ccc2[nH]cc(CCCN(CC3CC3)[C@H]3COc4c(F)ccc(C(N)=O)c4C3)c2c1 (as salt: hydrochloride) [Compound 98b, (3R)-3-[[3-(5-cyano-1H-indol-3-yl)propyl](cyclopropylmethyl)amino]-8-fluorochromane-5-carboxamide] |
| 196 to 198 °C | COc1cccc2c(CCCNC3COc4c(F)ccc(C(N)=O)c4C3)c[nH]c12 (centres unmarked) (as salt: hydrochloride) [Compound 99, 8-fluoro-3-{[3-(7-methoxy-1H-indol-3-yl)propyl]amino}chromane-5-carboxamide] |
| 158 to 164 °C (dec.) | CCCN(CCCc1c[nH]c2c(OC)cccc12)C1COc2c(F)ccc(C(N)=O)c2C1 (centres unmarked) (as salt: hydrochloride) [Compound 100, 8-fluoro-3-[[3-(7-methoxy-1H-indol-3-yl)propyl](propyl)amino]chromane-5-carboxamide] |
| 148 to 153 °C (dec.) | CCN(CCCc1c[nH]c2c(OC)cccc12)C1COc2c(F)ccc(C(N)=O)c2C1 (centres unmarked) (as salt: hydrochloride) [Compound 101, 3-{ethyl[3-(7-methoxy-1H-indol-3-yl)propyl]amino}-8-fluorochromane-5-carboxamide] |
| 152 to 158 °C (dec.) | COc1cccc2c(CCCN(CC3CC3)C3COc4c(F)ccc(C(N)=O)c4C3)c[nH]c12 (centres unmarked) (as salt: hydrochloride) [Compound 103, 3-{(cyclopropylmethyl)[3-(7-methoxy-1H-indol-3-yl)propyl]amino}-8-fluorochromane-5-carboxamide] |
| 171 to 176 °C (dec.) | COc1ccc2[nH]cc(CCCNC3COc4c(F)ccc(C(N)=O)c4C3)c2c1 (centres unmarked) (as salt: hydrochloride) [Compound 104, 8-fluoro-3-{[3-(5-methoxy-1H-indol-3-yl)propyl]amino}chromane-5-carboxamide] |
| 154 to 162 °C (dec.) | CCN(CCCc1c[nH]c2ccc(OC)cc12)C1COc2c(F)ccc(C(N)=O)c2C1 (centres unmarked) (as salt: hydrochloride) [Compound 105, 3-{ethyl[3-(5-methoxy-1H-indol-3-yl)propyl]amino}-8-fluorochromane-5-carboxamide] |
| 145 to 152 °C (dec.) | CCCN(CCCc1c[nH]c2ccc(OC)cc12)C1COc2c(F)ccc(C(N)=O)c2C1 (centres unmarked) (as salt: hydrochloride) [Compound 106, 8-fluoro-3-[[3-(5-methoxy-1H-indol-3-yl)propyl](propyl)amino]chromane-5-carboxamide] |
| 148 to 154 °C (dec.) | COc1ccc2[nH]cc(CCCN(CC3CC3)C3COc4c(F)ccc(C(N)=O)c4C3)c2c1 (centres unmarked) (as salt: hydrochloride) [Compound 108, 3-{(cyclopropylmethyl)[3-(5-methoxy-1H-indol-3-yl)propyl]amino}-8-fluorochromane-5-carboxamide] |
| 222 to 224 °C | NC(=O)c1ccc(F)c2c1CC(NCCCc1c[nH]c3c(Cl)cccc13)CO2 (centres unmarked) (as salt: hydrochloride) [Compound 109, 3-{[3-(7-chloro-1H-indol-3-yl)propyl]amino}-8-fluorochromane-5-carboxamide] |
| 146 to 152 °C (dec.) | CCN(CCCc1c[nH]c2c(Cl)cccc12)C1COc2c(F)ccc(C(N)=O)c2C1 (centres unmarked) (as salt: hydrochloride) [Compound 110, 3-[[3-(7-chloro-1H-indol-3-yl)propyl](ethyl)amino]-8-fluorochromane-5-carboxamide] |
| 147 to 155 °C (dec.) | NC(=O)c1ccc(F)c2c1CC(N(CCCc1c[nH]c3c(Cl)cccc13)CC1CC1)CO2 (centres unmarked) (as salt: hydrochloride) [Compound 112, 3-[[3-(7-chloro-1H-indol-3-yl)propyl](cyclopropylmethyl)amino]-8-fluorochromane-5-carboxamide] |
| 145 to 154 °C (dec.) | CCCN(CCCc1c[nH]c2c(Cl)cccc12)C1COc2c(F)ccc(C(N)=O)c2C1 (centres unmarked) (as salt: hydrochloride) [Compound 113, 3-[[3-(7-chloro-1H-indol-3-yl)propyl](propyl)amino]-8-fluorochromane-5-carboxamide] |
| 218 to 221 °C | NC(=O)c1ccc(F)c2c1CC(NCCCc1c[nH]c3ccc(Cl)cc13)CO2 (centres unmarked) (as salt: hydrochloride) [Compound 114, 3-{[3-(5-chloro-1H-indol-3-yl)propyl]amino}-8-fluorochromane-5-carboxamide] |
| 149 to 156 °C (dec.) | CCN(CCCc1c[nH]c2ccc(Cl)cc12)C1COc2c(F)ccc(C(N)=O)c2C1 (centres unmarked) (as salt: hydrochloride) [Compound 115, 3-[[3-(5-chloro-1H-indol-3-yl)propyl](ethyl)amino]-8-fluorochromane-5-carboxamide] |
| 148 to 154 °C (dec.) | CCCN(CCCc1c[nH]c2ccc(Cl)cc12)C1COc2c(F)ccc(C(N)=O)c2C1 (centres unmarked) (as salt: hydrochloride) [Compound 116, 3-[[3-(5-chloro-1H-indol-3-yl)propyl](propyl)amino]-8-fluorochromane-5-carboxamide] |
| 150 to 158 °C (dec.) | NC(=O)c1ccc(F)c2c1CC(N(CCCc1c[nH]c3ccc(Cl)cc13)CC1CC1)CO2 (centres unmarked) (as salt: hydrochloride) [Compound 118, 3-[[3-(5-chloro-1H-indol-3-yl)propyl](cyclopropylmethyl)amino]-8-fluorochromane-5-carboxamide] |
| 124 °C (dec.) | NC(=O)c1ccc(F)c2c1OCC(NCCCc1c[nH]c3ccc(F)cc13)C2 (centres unmarked) (as salt: hydrochloride) [Compound 119, 5-fluoro-3-{[3-(5-fluoro-1H-indol-3-yl)propyl]amino}chromane-8-carboxamide] |
| 123 °C (dec.) | CCCN(CCCc1c[nH]c2ccc(F)cc12)C1COc2c(C(N)=O)ccc(F)c2C1 (centres unmarked) (as salt: hydrochloride) [Compound 120, 5-fluoro-3-[[3-(5-fluoro-1H-indol-3-yl)propyl](propyl)amino]chromane-8-carboxamide] |
| 123 °C (dec.) | NC(=O)c1ccc(F)c2c1OCC(N(CCCc1c[nH]c3ccc(F)cc13)CC1CC1)C2 (centres unmarked) (as salt: hydrochloride) [Compound 121, 3-{(cyclopropylmethyl)[3-(5-fluoro-1H-indol-3-yl)propyl]amino}-5-fluorochromane-8-carboxamide] |
| 132 °C (dec.) | NC(=O)c1ccc(F)c2c1OCC(N(CCCc1c[nH]c3ccc(F)cc13)C1CCC1)C2 (centres unmarked) (as salt: hydrochloride) [Compound 122, 3-{cyclobutyl[3-(5-fluoro-1H-indol-3-yl)propyl]amino}-5-fluorochromane-8-carboxamide] |
| 119 °C (dec.) | NC(=O)c1ccc(F)c2c1OCC(NCCCCc1c[nH]c3ccc(F)cc13)C2 (centres unmarked) (as salt: hydrochloride) [Compound 123, 5-fluoro-3-{[4-(5-fluoro-1H-indol-3-yl)butyl]amino}chromane-8-carboxamide] |

| SMILES | melting point |
| --- | --- |
| N#Cc1ccc2[nH]cc(CCCN(C3CCC3)[C@@H]3COc4c(F)ccc(C(N)=O)c4C3)c2c1 (as salt: hydrochloride) [Compound 97a, (3S)-3-[[3-(5-cyano-1H-indol-3-yl)propyl](cyclobutyl)amino]-8-fluorochromane-5-carboxamide] | 170 to 177 °C (dec.) |
| N#Cc1ccc2[nH]cc(CCCN(C3CCC3)[C@H]3COc4c(F)ccc(C(N)=O)c4C3)c2c1 (as salt: hydrochloride) [Compound 97b, (3R)-3-[[3-(5-cyano-1H-indol-3-yl)propyl](cyclobutyl)amino]-8-fluorochromane-5-carboxamide] | 166 to 171 °C (dec.) |
| COc1cccc2c(CCCN(C3CCC3)C3COc4c(F)ccc(C(N)=O)c4C3)c[nH]c12 (centres unmarked) (as salt: hydrochloride) [Compound 102, 3-{cyclobutyl[3-(7-methoxy-1H-indol-3-yl)propyl]amino}-8-fluorochromane-5-carboxamide] | 156 to 162 °C (dec.) |
| COc1ccc2[nH]cc(CCCN(C3CCC3)C3COc4c(F)ccc(C(N)=O)c4C3)c2c1 (centres unmarked) (as salt: hydrochloride) [Compound 107, 3-{cyclobutyl[3-(5-methoxy-1H-indol-3-yl)propyl]amino}-8-fluorochromane-5-carboxamide] | 151 to 158 °C (dec.) |
| NC(=O)c1ccc(F)c2c1CC(N(CCCc1c[nH]c3c(Cl)cccc13)C1CCC1)CO2 (centres unmarked) (as salt: hydrochloride) [Compound 111, 3-[[3-(7-chloro-1H-indol-3-yl)propyl](cyclobutyl)amino]-8-fluorochromane-5-carboxamide] | 154 to 163 °C (dec.) |
| NC(=O)c1ccc(F)c2c1CC(N(CCCc1c[nH]c3ccc(Cl)cc13)C1CCC1)CO2 (centres unmarked) (as salt: hydrochloride) [Compound 117, 3-[[3-(5-chloro-1H-indol-3-yl)propyl](cyclobutyl)amino]-8-fluorochromane-5-carboxamide] | 152 to 160 °C (dec.) |
